Measured values published in patent US12344597B2, “Alkoxy-substituted pyridinyl derivatives as LPA1 receptor antagonists and their use in the treatment of fibrosis” (IDORSIA PHARMACEUTICALS LTD, priority 2018, dated 2025).

What follows are compounds tested against human LPA1 receptor (Homo sapiens (Human), UniProt Q92633) (assay: Beta-arrestin recruitment assay to determine IC50 values for human LPAR1). Details: antagonist mode, Tango EDG2-bla U2OS cells, LPA 18:1 500 nM final.
Sequence of human LPA1 receptor (Q92633 whole entry): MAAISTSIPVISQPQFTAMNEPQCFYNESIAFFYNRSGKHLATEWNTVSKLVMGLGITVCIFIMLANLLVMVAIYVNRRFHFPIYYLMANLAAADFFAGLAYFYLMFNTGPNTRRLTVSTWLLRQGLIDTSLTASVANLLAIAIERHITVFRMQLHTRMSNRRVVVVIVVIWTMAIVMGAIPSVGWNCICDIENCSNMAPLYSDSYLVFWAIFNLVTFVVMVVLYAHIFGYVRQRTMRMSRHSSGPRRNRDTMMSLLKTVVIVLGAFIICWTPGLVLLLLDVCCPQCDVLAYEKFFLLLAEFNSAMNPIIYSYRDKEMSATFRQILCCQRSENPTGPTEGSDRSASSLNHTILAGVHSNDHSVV
Assay type: cell-based
Summary of the method: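 Antagonist IC50 = concentration giving 50% inhibition of maximal LPA response. Read-out is beta-lactamase reporter activity after arrestin-protease recruitment in U2OS cells bearing LPA1-TEV-Gal4-VP16 construct; cells pre-incubated 20 h, 37 °C, 5% CO2.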
Work on `Cc1ccc(NC(=O)C2(c3ccccc3C(C)C)CN(C(=O)CNS(N)(=O)=O)C2)c(OC(F)F)n1` [Ex 12-128, N-(2-(difluoromethoxy)-6-methylpyridin-3-yl)-3-(2-isopropylphenyl)-1-(sulfamoylglycyl)azetidine-3-carboxamide] yielded an IC50 of 10 nM.
Compound `Cc1ccc(NC(=O)C2(c3ccccc3C(C)C)CN(C(=O)C3(C(=O)O)CNC3)C2)c(OC(F)F)n1` [Ex 12-114, 3-(3-((2-(difluoromethoxy)-6-methylpyridin-3-yl)carbamoyl)-3-(2-isopropylphenyl)azetidine-1-carbonyl)azetidine-3-carboxylic acid] has an IC50 of 2680 nM.
With `Cc1ccc(NC(=O)C2(c3ccccc3C(C)C)CN(C(=O)[C@H](C)CC(=O)O)C2)c(OC(F)F)n1` [Ex 12-90, (R)-4-(3-((2-(difluoromethoxy)-6-methylpyridin-3-yl)carbamoyl)-3-(2-isopropylphenyl)azetidin-1-yl)-3-methyl-4-oxobutanoic acid] the IC50 was 14 nM.
For `Cc1ccc(NC(=O)C2(c3ccccc3C(C)C)CN(C(=O)C3C4CC3(C(=O)O)C4)C2)c(OC(F)F)n1` (centres unmarked) [Ex 12-108, 2-(3-((2-(difluoromethoxy)-6-methylpyridin-3-yl)carbamoyl)-3-(2-isopropylphenyl)azetidine-1-carbonyl)bicyclo[1.1.1]pentane-1-carboxylic acid], the IC50 was 28 nM.
With `Cc1ccc(NC(=O)C2(c3ccccc3C(C)C)CN(S(=O)(=O)C3(CC(=O)O)CC3)C2)c(OC(F)F)n1` [Ex 13-14, 2-(1-((3-((2-(difluoromethoxy)-6-methylpyridin-3-yl)carbamoyl)-3-(2-isopropylphenyl)azetidin-1-yl)sulfonyl)cyclopropyl)acetic acid] the IC50 was 10 nM.
Work on `Cc1ccc(NC(=O)C2(c3ccccc3C(C)C)CCN(C(=O)Cn3nccn3)CC2)c(OC(F)F)n1` [Ex 12-22, 1-(2-(2H-1,2,3-triazol-2-yl)acetyl)-N-(2-(difluoromethoxy)-6-methylpyridin-3-yl)-4-(2-isopropylphenyl)piperidine-4-carboxamide] yielded an IC50 of 7 nM.
`Cc1ccc(NC(=O)C2(c3ccccc3C(C)C)CN(c3nnn[nH]3)C2)c(OC(F)F)n1` [Ex 20, N-(2-(difluoromethoxy)-6-methylpyridin-3-yl)-3-(2-isopropylphenyl)-1-(1H-tetrazol-5-yl)azetidine-3-carboxamide] showed an IC50 of 37 nM.
Compound `COC(=O)CCC(=O)N1CC(C(=O)Nc2ccc(Cl)nc2OC)(c2ccccc2C(C)C)C1` [Ex 12-69, methyl 4-(3-((6-chloro-2-methoxypyridin-3-yl)carbamoyl)-3-(2-isopropylphenyl)azetidin-1-yl)-4-oxobutanoate] has an IC50 of 230 nM.
Work on `C=C(CC(=O)OC)C(=O)N1CC(C(=O)Nc2ccc(C)nc2OC(F)F)(c2ccccc2C(C)C)C1` [Ex 12-92, methyl 3-(3-((2-(difluoromethoxy)-6-methylpyridin-3-yl)carbamoyl)-3-(2-isopropylphenyl)azetidine-1-carbonyl)but-3-enoate] yielded an IC50 of 110 nM.
`Cc1ccc(NC(=O)C2(c3ncccc3C(C)C)CN(c3nc(C)ncc3F)C2)c(OC(F)F)n1` [Ex 64, N-(2-(difluoromethoxy)-6-methylpyridin-3-yl)-1-(5-fluoro-2-methylpyrimidin-4-yl)-3-(3-isopropylpyridin-2-yl)azetidine-3-carboxamide] showed an IC50 of 15 nM.
`Cc1ccc(NC(=O)C2(c3ccccc3C(C)C)CN(C(=O)C[C@H](C)C(=O)O)C2)c(OC(F)F)n1` [Ex 12-79, (S)-4-(3-((2-(difluoromethoxy)-6-methylpyridin-3-yl)carbamoyl)-3-(2-isopropylphenyl)azetidin-1-yl)-2-methyl-4-oxobutanoic acid] showed an IC50 of 15 nM.
`Cc1ccc(NC(=O)C2(c3ccccc3C(C)C)CN(CC3(CO)COC3)C2)c(OC(F)F)n1` [Ex 11-89, N-(2-(difluoromethoxy)-6-methylpyridin-3-yl)-1-((3-(hydroxymethyl)oxetan-3-yl)methyl)-3-(2-isopropylphenyl)azetidine-3-carboxamide] showed an IC50 of 73 nM.
`Cc1ccc(NC(=O)C2(c3ccccc3C(C)C)CN(C(=O)[C@H]3CC[C@@H](C(=O)O)CC3)C2)c(OC(F)F)n1` [Ex 50, (1s,4s)-4-(3-((2-(difluoromethoxy)-6-methylpyridin-3-yl)carbamoyl)-3-(2-isopropylphenyl)azetidine-1-carbonyl)cyclohexane-1-carboxylic acid] showed an IC50 of 68 nM.
Compound `COC(=O)c1cc(CN2CC(C(=O)Nc3ccc(C)nc3OC(F)F)(c3ccccc3C(C)C)C2)ccn1` [Ex 11-50, methyl 4-((3-((2-(difluoromethoxy)-6-methylpyridin-3-yl)carbamoyl)-3-(2-isopropylphenyl)azetidin-1-yl)methyl)picolinate] has an IC50 of 47 nM.
`Cc1ccc(NC(=O)C2(c3ccccc3C3CC3)CNC2)c(OC(F)F)n1` [Ex 23, 3-(2-cyclopropylphenyl)-N-(2-(difluoromethoxy)-6-methylpyridin-3-yl)azetidine-3-carboxamide] gave an IC50 of 664 nM.
With `Cc1ccc(NC(=O)C2(c3ccccc3C(C)C)CN(S(=O)(=O)CCCC(=O)O)C2)c(OC(F)F)n1` [Ex 13-17, 4-((3-((2-(difluoromethoxy)-6-methylpyridin-3-yl)carbamoyl)-3-(2-isopropylphenyl)azetidin-1-yl)sulfonyl)butanoic acid] the IC50 was 7 nM.
`COC(=O)C1(OC(=O)N2CC(C(=O)Nc3ccc(C)nc3OC(F)F)(c3ccccc3C(C)C)C2)CC1` [Ex 14-7, 1-(methoxycarbonyl)cyclopropyl 3-((2-(difluoromethoxy)-6-methylpyridin-3-yl)carbamoyl)-3-(2-isopropylphenyl)azetidine-1-carboxylate] was tested, and the IC50 was 79 nM.
For `COC(=O)C(C)(C)CC(=O)N1CC(C(=O)Nc2ncc(Br)cc2OC(F)F)(c2ccccc2C(C)C)C1` [Ex 79-1, Methyl 4-(3-((5-bromo-3-(difluoromethoxy)pyridin-2-yl)carbamoyl)-3-(2-isopropylphenyl)azetidin-1-yl)-2,2-dimethyl-4-oxobutanoate], the IC50 was 65 nM.
`CC(C)c1ccccc1C1(C(=O)Nc2ncc(Br)cc2OC(F)F)CN(CCC(C)(C)C(=O)O)C1` [Ex 78-3, 4-(3-((5-bromo-3-(difluoromethoxy)pyridin-2-yl)carbamoyl)-3-(2-isopropylphenyl)azetidin-1-yl)-2,2-dimethylbutanoic acid] was tested, and the IC50 was 13 nM.
With `NS(=O)(=O)N1CC(C(=O)Nc2ncc(Cl)cc2OC(F)F)(c2ccccc2C2CCCC2)C1` [Example 81-6, N-(5-chloro-3-(difluoromethoxy)pyridin-2-yl)-3-(2-cyclopentylphenyl)-1-sulfamoylazetidine-3-carboxamide] the IC50 was 22 nM.
`COC(=O)CNCC(=O)N1CC(C(=O)Nc2ccc(C)nc2OC(F)F)(c2ccccc2C(C)C)C1` [Ex 56, methyl (2-(3-((2-(difluoromethoxy)-6-methylpyridin-3-yl)carbamoyl)-3-(2-isopropylphenyl)azetidin-1-yl)-2-oxoethyl)glycinate] showed an IC50 of 8 nM.
In the case of `Cc1ccc(NC(=O)C2(c3nccnc3C(C)C)CNC2)c(OC(F)F)n1` [Ex 68, N-(2-(difluoromethoxy)-6-methylpyridin-3-yl)-3-(3-isopropylpyrazin-2-yl)azetidine-3-carboxamide], the IC50 is reported as 7620 nM.
In the case of `Cc1ccc(NC(=O)C2(c3ccccc3C(C)C)CN(CCCC(C)(C)C(=O)O)C2)c(OC(F)F)n1` [Ex 11-69, 5-(3-((2-(difluoromethoxy)-6-methylpyridin-3-yl)carbamoyl)-3-(2-isopropylphenyl)azetidin-1-yl)-2,2-dimethylpentanoic acid], the IC50 is reported as 15 nM.
